Measured values: US20260158017A1, “KIF18A INHIBITOR” (WIGEN BIOMEDICINE TECHNOLOGY (SHANGHAI) CO., LTD., priority 2021, published 2026)

Each compound was assayed against T1, Recombinant human KIF18A (1-467His-tagged) protein (Homo sapiens, UniProt Q8NI77) (assay: KIF18A enzyme assay (microtubule-stimulated ATPase activity, ADP-Glo)). Conditions: 30 nM KIF18A, 75 μM ATP, 30 μg/mL pig microtubules; read-out: Inhibitory activity against KIF18A IC50.
T1 construct: Recombinant human KIF18A (1-467His-tagged) protein; His; made in house
T1 sequence (Q8NI77 1-467): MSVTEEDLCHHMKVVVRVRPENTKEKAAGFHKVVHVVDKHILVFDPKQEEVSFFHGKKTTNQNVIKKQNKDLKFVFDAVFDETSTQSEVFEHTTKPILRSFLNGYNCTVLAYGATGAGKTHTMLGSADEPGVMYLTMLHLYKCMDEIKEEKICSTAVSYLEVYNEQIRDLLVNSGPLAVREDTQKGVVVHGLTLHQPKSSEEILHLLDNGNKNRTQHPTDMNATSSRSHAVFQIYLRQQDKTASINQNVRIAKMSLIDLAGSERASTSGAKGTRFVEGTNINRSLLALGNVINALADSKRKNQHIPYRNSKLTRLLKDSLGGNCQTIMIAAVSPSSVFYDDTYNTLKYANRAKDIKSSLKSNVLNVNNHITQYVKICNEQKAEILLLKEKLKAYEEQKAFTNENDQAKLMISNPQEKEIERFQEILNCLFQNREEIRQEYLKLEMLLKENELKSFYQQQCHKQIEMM
T1 sequence (P02550 whole entry partner): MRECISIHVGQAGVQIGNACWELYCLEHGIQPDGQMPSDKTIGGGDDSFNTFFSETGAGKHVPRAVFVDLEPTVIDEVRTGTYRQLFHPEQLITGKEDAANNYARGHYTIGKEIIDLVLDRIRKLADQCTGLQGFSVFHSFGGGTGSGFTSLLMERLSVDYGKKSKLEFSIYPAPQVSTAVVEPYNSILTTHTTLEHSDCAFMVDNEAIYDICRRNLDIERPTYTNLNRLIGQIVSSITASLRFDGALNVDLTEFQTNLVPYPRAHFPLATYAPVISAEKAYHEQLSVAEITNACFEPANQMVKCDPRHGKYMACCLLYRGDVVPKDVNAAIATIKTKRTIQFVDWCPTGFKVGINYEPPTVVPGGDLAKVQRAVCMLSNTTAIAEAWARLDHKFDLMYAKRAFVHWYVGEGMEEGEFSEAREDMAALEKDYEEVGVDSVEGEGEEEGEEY
T1 sequence (P02554 whole entry partner): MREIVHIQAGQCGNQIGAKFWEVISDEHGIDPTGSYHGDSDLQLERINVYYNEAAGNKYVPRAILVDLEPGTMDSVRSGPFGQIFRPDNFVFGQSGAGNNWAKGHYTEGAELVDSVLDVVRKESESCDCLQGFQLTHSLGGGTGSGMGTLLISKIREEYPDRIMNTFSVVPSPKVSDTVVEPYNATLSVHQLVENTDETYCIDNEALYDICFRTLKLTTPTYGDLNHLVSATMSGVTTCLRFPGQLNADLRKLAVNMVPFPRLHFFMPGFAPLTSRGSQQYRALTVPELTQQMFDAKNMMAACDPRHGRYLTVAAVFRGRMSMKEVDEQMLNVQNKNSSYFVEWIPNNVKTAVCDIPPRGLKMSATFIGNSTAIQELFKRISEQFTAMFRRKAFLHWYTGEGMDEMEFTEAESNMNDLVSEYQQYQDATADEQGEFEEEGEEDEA
Type: biochemical
How it was run: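 Buffer 15 mM Tris pH 7.5, 10 mM MgCl2, 0.01% Pluronic F-68, 1 μM paclitaxel, 30 μg/mL pig microtubules; reactions at room temperature. IC50 from inhibition relative to DMSO.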

IC50, ≤ 100 nM:
C[C@@H]1CN(c2nc(NC(=O)c3ccc(NS(=O)(=O)CCO)cc3N3CCC4(CC3)CC4)ccc2OCF)CCO1 [Compound 418], C[C@H]1CN(c2nc(NC(=O)c3ccc(NS(=O)(=O)CCO)cc3N3CCC4(CC3)CC4)ccc2OCF)CCO1 [Compound 419], O=C(Nc1ccc(OCF)c(N2CC(F)(F)C2)n1)c1ccc(NS(=O)(=O)CCO)cc1N1CCC2(CC1)CC2 [Compound 420], O=C(Nc1ccc(OCF)c(OCCC(F)(F)F)n1)c1ccc(NS(=O)(=O)CCO)cc1N1CCC2(CC1)CC2 [Compound 421], O=C(Nc1ccc(OCF)c(N2CCC3(CC3)C2)n1)c1ccc(NS(=O)(=O)CCO)cc1N1CCC2(CC1)CC2 [Compound 422], O=C(Nc1ccc(OCF)c(OC2CCC2)n1)c1ccc(NS(=O)(=O)CCO)cc1N1CCC2(CC1)CC2 [Compound 423], CC1(F)CCN(c2nc(NC(=O)c3ccc(NS(=O)(=O)CCO)cc3N3CCC4(CC3)CC4)ccc2OCF)C1 (centres unmarked) [Compound 424], O=C(Nc1ccc(OCF)c(N2CCC(F)CC2)n1)c1ccc(NS(=O)(=O)CCO)cc1N1CCC2(CC1)CC2 [Compound 425], O=C(Nc1ccc(OCF)c(N2CC3CC3C2)n1)c1ccc(NS(=O)(=O)CCO)cc1N1CCC2(CC1)CC2 (centres unmarked) [Compound 426], CC(C)(CO)Nc1nc(NC(=O)c2ccc(NS(=O)(=O)CCO)cc2N2CCC3(CC2)CC3)ccc1OCF [Compound 427], O=C(Nc1ccc(OCF)c(N2CCOCC2)n1)c1ccc(NS(=O)(=O)CCO)cc1N1CCC2(CC1)CC2 [Compound 428], C[C@@H](CO)S(=O)(=O)Nc1ccc(C(=O)Nc2ccc(OCF)c(N3CCC(F)(F)CC3)n2)c(N2CCC3(CC2)CC3)c1 [Compound 429], C[C@H](CO)S(=O)(=O)Nc1ccc(C(=O)Nc2ccc(OCF)c(N3CCC(F)(F)CC3)n2)c(N2CCC3(CC2)CC3)c1 [Compound 430], C[C@@H]1CN(c2nc(NC(=O)c3ccc(NS(=O)(=O)[C@@H](C)CO)cc3N3CCC4(CC3)CC4)ccc2OCF)CCO1 [Compound 431], C[C@@H]1CN(c2nc(NC(=O)c3ccc(NS(=O)(=O)[C@H](C)CO)cc3N3CCC4(CC3)CC4)ccc2OCF)CCO1 [Compound 432], O=C(Nc1ccc(OCF)c(N2CCC(F)(F)CC2)n1)c1ccc(S(=O)(=O)NCCO)cc1N1CCC2(CC1)CC2 [Compound 433], C[C@@H]1CN(c2nc(NC(=O)c3ccc(S(=O)(=O)NCCO)cc3N3CCC4(CC3)CC4)ccc2OCF)CCO1 [Compound 434], C[C@H]1CN(c2nc(NC(=O)c3ccc(S(=O)(=O)NCCO)cc3N3CCC4(CC3)CC4)ccc2OCF)CCO1 [Compound 435], O=C(Nc1ccc(OCF)c(N2CC(F)(F)C2)n1)c1ccc(S(=O)(=O)NCCO)cc1N1CCC2(CC1)CC2 [Compound 436], O=C(Nc1ccc(OCF)c(OCCC(F)(F)F)n1)c1ccc(S(=O)(=O)NCCO)cc1N1CCC2(CC1)CC2 [Compound 437], O=C(Nc1ccc(OCF)c(N2CCC3(CC3)C2)n1)c1ccc(S(=O)(=O)NCCO)cc1N1CCC2(CC1)CC2 [Compound 438], O=C(Nc1ccc(OCF)c(OC2CCC2)n1)c1ccc(S(=O)(=O)NCCO)cc1N1CCC2(CC1)CC2 [Compound 439], CC1(F)CCN(c2nc(NC(=O)c3ccc(S(=O)(=O)NCCO)cc3N3CCC4(CC3)CC4)ccc2OCF)C1 (centres unmarked) [Compound 440], O=C(Nc1ccc(OCF)c(N2CCC(F)CC2)n1)c1ccc(S(=O)(=O)NCCO)cc1N1CCC2(CC1)CC2 [Compound 441], O=C(Nc1ccc(OCF)c(N2CC3CC3C2)n1)c1ccc(S(=O)(=O)NCCO)cc1N1CCC2(CC1)CC2 (centres unmarked) [Compound 442], CC(C)(CO)Nc1nc(NC(=O)c2ccc(S(=O)(=O)NCCO)cc2N2CCC3(CC2)CC3)ccc1OCF [Compound 443], O=C(Nc1ccc(OCF)c(N2CCOCC2)n1)c1ccc(S(=O)(=O)NCCO)cc1N1CCC2(CC1)CC2 [Compound 444], C[C@@H](CO)NS(=O)(=O)c1ccc(C(=O)Nc2ccc(OCF)c(N3CCC(F)(F)CC3)n2)c(N2CCC3(CC2)CC3)c1 [Compound 445], C[C@H](CO)NS(=O)(=O)c1ccc(C(=O)Nc2ccc(OCF)c(N3CCC(F)(F)CC3)n2)c(N2CCC3(CC2)CC3)c1 [Compound 446], C[C@@H]1CN(c2nc(NC(=O)c3ccc(S(=O)(=O)N[C@@H](C)CO)cc3N3CCC4(CC3)CC4)ccc2OCF)CCO1 [Compound 447], C[C@H](CO)NS(=O)(=O)c1ccc(C(=O)Nc2ccc(OCF)c(N3CCO[C@H](C)C3)n2)c(N2CCC3(CC2)CC3)c1 [Compound 448], O=C(Nc1ccc(OCF)c(N2CCC(F)(F)CC2)c1)c1cnc(NS(=O)(=O)CCO)cc1N1CCC2(CC1)CC2 [Compound 449], C[C@@H]1CN(c2cc(NC(=O)c3cnc(NS(=O)(=O)CCO)cc3N3CCC4(CC3)CC4)ccc2OCF)CCO1 [Compound 450], C[C@H]1CN(c2cc(NC(=O)c3cnc(NS(=O)(=O)CCO)cc3N3CCC4(CC3)CC4)ccc2OCF)CCO1 [Compound 451], O=C(Nc1ccc(OCF)c(N2CC(F)(F)C2)c1)c1cnc(NS(=O)(=O)CCO)cc1N1CCC2(CC1)CC2 [Compound 452], O=C(Nc1ccc(OCF)c(OCCC(F)(F)F)c1)c1cnc(NS(=O)(=O)CCO)cc1N1CCC2(CC1)CC2 [Compound 453], O=C(Nc1ccc(OCF)c(N2CCC3(CC3)C2)c1)c1cnc(NS(=O)(=O)CCO)cc1N1CCC2(CC1)CC2 [Compound 454], O=C(Nc1ccc(OCF)c(OC2CCC2)c1)c1cnc(NS(=O)(=O)CCO)cc1N1CCC2(CC1)CC2 [Compound 455], CC1(F)CCN(c2cc(NC(=O)c3cnc(NS(=O)(=O)CCO)cc3N3CCC4(CC3)CC4)ccc2OCF)C1 (centres unmarked) [Compound 456], O=C(Nc1ccc(OCF)c(N2CCC(F)CC2)c1)c1cnc(NS(=O)(=O)CCO)cc1N1CCC2(CC1)CC2 [Compound 457], O=C(Nc1ccc(OCF)c(N2CC3CC3C2)c1)c1cnc(NS(=O)(=O)CCO)cc1N1CCC2(CC1)CC2 (centres unmarked) [Compound 458], CC(C)(CO)Nc1cc(NC(=O)c2cnc(NS(=O)(=O)CCO)cc2N2CCC3(CC2)CC3)ccc1OCF [Compound 459], O=C(Nc1ccc(OCF)c(N2CCOCC2)c1)c1cnc(NS(=O)(=O)CCO)cc1N1CCC2(CC1)CC2 [Compound 460], C[C@@H](CO)S(=O)(=O)Nc1cc(N2CCC3(CC2)CC3)c(C(=O)Nc2ccc(OCF)c(N3CCC(F)(F)CC3)c2)cn1 [Compound 461], C[C@H](CO)S(=O)(=O)Nc1cc(N2CCC3(CC2)CC3)c(C(=O)Nc2ccc(OCF)c(N3CCC(F)(F)CC3)c2)cn1 [Compound 462], C[C@@H]1CN(c2cc(NC(=O)c3cnc(NS(=O)(=O)[C@@H](C)CO)cc3N3CCC4(CC3)CC4)ccc2OCF)CCO1 [Compound 463], C[C@@H]1CN(c2cc(NC(=O)c3cnc(NS(=O)(=O)[C@H](C)CO)cc3N3CCC4(CC3)CC4)ccc2OCF)CCO1 [Compound 464]
